According to patent publication US20250152647A1, “FORMULATIONS AND METHODS FOR SKIN CARE” (AMILYFE, LLC, priority 2022, published 2025):

Assay: Preliminary screens of amino acids
Procedure: In addition to the amino acid combinations described above, several other combinations are tested that include, e.g., Trp and/or Arg to determine if inclusion of these amino acids confers additional dermatological benefits. […] At the outset, the following combinations of amino acids are tested: Ala, Gln, Gly, Ser (combo #1); Ala, Gln, Gly, Ser, Val, Ile (combo #2); Ala, Gln, Gly, Ser, Val; Ala, Gln, Gly, Ser, Ile; Ala, Gln, Gly, Ser, Ile, Val, Trp; Ala, Gln, Gly, Ser, Ile, Val, Arg; and Ala, Gln, Gly, Ser, Ile, Val, Trp, Arg.

SMILES: N=C(N)NCCC[C@H](N)C(=O)O [Arg, arginine]
- effect in preliminary screens: positive effects

SMILES: N[C@@H](Cc1c[nH]c2ccccc12)C(=O)O [Trp, tryptophan]
- effect in preliminary screens: positive effects
